From publication PMC6797481, “Identification of an allosteric binding site on the human glycine transporter, GlyT2, for bioactive lipid analgesics” (eLife, 2019) come the findings set out here.

Molecules are shown by their SMILES.

The assay relates to GlyT2 F428A, V432A, Y550L, P561S, W563L and L569F mutants. Description: Screen of GlyT2 point mutants for inhibition by 1 µM oleoyl L-carnitine. The assay is classed as cell-based, human. To be noted: range over F428A. An excerpt:
The binding site for the allosteric serotonin reuptake inhibitor, (S)-citalopram, lies in the extracellular facing vestibule of SERT, formed by residues from TM1b, TM6a, TM10, and TM11 ([Coleman et al., 2016]). To determine if bioactive lipids inhibit GlyT2 by binding to this ‘vestibule allosteric site,’ corresponding residues in GlyT2 were mutated to remove potential interactions. OLCarn contains a bulky, zwitterionic head group conjugated to an oleoyl lipid tail, and was used as a screen to test mutant transporters for sensitivity to inhibition. None of the transporters containing mutations in the vestibule allosteric site display any change in inhibition compared to WT (Figure 1a). […] Mutations to GlyT2 residues were made either to resemble GlyT1, or to remove potential interactions with bioactive lipids but not disrupt the overall transport activity, often using substitutions present in the bacterial homologue, LeuT.
Figure 1. Defining the bioactive lipid binding site. (a) Inhibition of GlyT2 by 1 µM oleoyl L-carnitine. Transporters were WT or with mutations to the vestibule allosteric site (VAS) or adjacent to EL4. The reduced glycine transport currents were normalised to the current elicited by glycine alone. Data represented are means ± SEM with ****p<0.001 following a one way ANOVA test. […]

For `CCCCCCCC/C=C\CCCCCCCC(=O)O[C@H](CC(=O)[O-])C[N+](C)(C)C` [oleoyl L-Carnitine, reference compound], the “inhibition of glycine transport current” value is 14.9–29.0%.
